Laboratory results from ChEMBL document CHEMBL1909046, “DrugMatrix in vitro pharmacology data”.

Legend:
[1] = biological target: T1, Alpha-2C adrenergic receptor (Homo sapiens, UniProt P18825); assay: DRUGMATRIX: Adrenergic Alpha-2C radioligand binding (ligand: [3H] MK-912); assay type: cell membranes, Sf9, Membrane; details: sf9
T1 sequence (P18825 whole entry): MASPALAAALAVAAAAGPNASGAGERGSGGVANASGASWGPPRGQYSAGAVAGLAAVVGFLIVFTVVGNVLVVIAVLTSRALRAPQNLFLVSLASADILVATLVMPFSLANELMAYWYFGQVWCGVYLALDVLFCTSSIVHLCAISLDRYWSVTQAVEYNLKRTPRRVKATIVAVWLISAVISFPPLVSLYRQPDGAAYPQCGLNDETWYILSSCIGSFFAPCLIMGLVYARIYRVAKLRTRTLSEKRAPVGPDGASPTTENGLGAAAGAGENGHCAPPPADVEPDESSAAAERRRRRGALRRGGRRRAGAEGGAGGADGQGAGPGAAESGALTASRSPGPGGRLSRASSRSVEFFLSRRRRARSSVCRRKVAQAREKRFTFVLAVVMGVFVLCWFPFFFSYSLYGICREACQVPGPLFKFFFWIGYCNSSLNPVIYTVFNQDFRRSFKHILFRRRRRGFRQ

D(4) dopamine receptor = biological target: T2, D(4) dopamine receptor (Homo sapiens, UniProt P21917); assay: DRUGMATRIX: Dopamine D4.2 radioligand binding (ligand: [3H] Spiperone); assay type: cell membranes, Membrane; details: cho-k1; Not Active = under 50% inhibition at 10 µM
T2 sequence (P21917 whole entry): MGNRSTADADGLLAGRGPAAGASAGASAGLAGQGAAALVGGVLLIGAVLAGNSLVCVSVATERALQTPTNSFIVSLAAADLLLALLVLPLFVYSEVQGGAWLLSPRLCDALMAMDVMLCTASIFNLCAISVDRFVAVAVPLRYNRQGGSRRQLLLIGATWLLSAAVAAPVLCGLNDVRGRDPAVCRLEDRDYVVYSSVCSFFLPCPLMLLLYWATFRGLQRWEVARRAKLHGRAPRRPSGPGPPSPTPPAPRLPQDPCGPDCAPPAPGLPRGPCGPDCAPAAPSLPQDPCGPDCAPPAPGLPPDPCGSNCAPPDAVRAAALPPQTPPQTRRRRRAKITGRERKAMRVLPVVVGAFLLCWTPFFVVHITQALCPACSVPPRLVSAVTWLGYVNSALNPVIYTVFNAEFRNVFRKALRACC

[2] = biological target: Prostaglandin G/H synthase 1 (Homo sapiens, UniProt P23219); assay: biochemical; assay type: tissue-based, Platelet; details: platelet;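 note: inhibition of COX-1 enzyme activity, with arachidonic acid supplied as substrate; in other assays of this panel Not Active means under 50% inhibition at 10 µM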
Interstitial collagenase = biological target: T3, Interstitial collagenase (Homo sapiens, UniProt P03956); assay: biochemical; assay type: tissue-based, Rheumatoid synovial fibroblasts;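 note: MMP-1 enzyme inhibition assay using a peptide substrate; in other assays of this panel Not Active means under 50% inhibition at 10 µM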
T3 sequence (P03956 whole entry): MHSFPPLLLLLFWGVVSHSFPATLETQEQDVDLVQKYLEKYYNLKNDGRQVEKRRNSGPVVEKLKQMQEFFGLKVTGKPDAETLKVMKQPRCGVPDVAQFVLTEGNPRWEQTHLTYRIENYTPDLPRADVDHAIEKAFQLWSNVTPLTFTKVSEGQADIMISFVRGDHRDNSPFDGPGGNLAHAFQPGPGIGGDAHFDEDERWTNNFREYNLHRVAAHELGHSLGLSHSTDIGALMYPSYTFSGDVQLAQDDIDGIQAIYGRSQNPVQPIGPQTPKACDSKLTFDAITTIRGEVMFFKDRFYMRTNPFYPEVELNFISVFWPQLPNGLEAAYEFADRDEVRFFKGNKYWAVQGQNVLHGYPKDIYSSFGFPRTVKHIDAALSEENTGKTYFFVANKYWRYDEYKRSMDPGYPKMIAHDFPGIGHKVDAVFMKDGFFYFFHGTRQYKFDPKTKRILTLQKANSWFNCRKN

[3] = DRUGMATRIX: Platelet-Derived Growth Factor (PDGF) radioligand binding (ligand: [125I] PDGF); assay type: cell-based; details: nih3t3; Not Active = under 50% inhibition at 10 µM
[4] = DRUGMATRIX: Purinergic P2X radioligand binding (ligand: [3H] alpha, beta-Methylene-ATP); assay type: cell membranes, Oryctolagus cuniculus, New Zealand albino, Urinary bladder, Membrane; details: Not Active = under 50% inhibition at 10 µM
[5] = biological target: Mitogen-activated protein kinase 14 (Homo sapiens, UniProt Q16539); design: species or system Escherichia coli;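 note: inhibition of p38alpha enzyme activity in a biochemical kinase assay, with myelin basic protein serving as substrate; in other assays of this panel Not Active means under 50% inhibition at 10 µM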
[6] = DRUGMATRIX: Phorbol Ester radioligand binding (ligand: [3H] PDBu); assay type: cell membranes, Mus musculus, ICR, Brain, Membrane; details: Not Active = under 50% inhibition at 10 µM
Cytochrome P450 2D6 = Cytochrome P450 2D6 (Homo sapiens, UniProt P10635); details: bti-tn-5b1-4; note: in other assays of this panel Not Active means under 50% inhibition at 10 µM
[7] = biological target: cGMP-specific 3',5'-cyclic phosphodiesterase (Homo sapiens, UniProt O76074); assay: DRUGMATRIX: Phosphodiesterase PDE5 enzyme inhibition (substrate: [3H]cGMP + cGMP); assay type: tissue-based; details: platelet; Not Active = under 50% inhibition at 10 µM
[8] = DRUGMATRIX: Glutamate, NMDA, Agonism radioligand binding (ligand: [3H] CGP-39653); assay type: cell membranes, Rattus norvegicus, Wistar, Cerebral cortex, Membrane; details: Not Active = under 50% inhibition at 10 µM

Mitogen-activated protein kinase 14, sequence (Q16539 whole entry): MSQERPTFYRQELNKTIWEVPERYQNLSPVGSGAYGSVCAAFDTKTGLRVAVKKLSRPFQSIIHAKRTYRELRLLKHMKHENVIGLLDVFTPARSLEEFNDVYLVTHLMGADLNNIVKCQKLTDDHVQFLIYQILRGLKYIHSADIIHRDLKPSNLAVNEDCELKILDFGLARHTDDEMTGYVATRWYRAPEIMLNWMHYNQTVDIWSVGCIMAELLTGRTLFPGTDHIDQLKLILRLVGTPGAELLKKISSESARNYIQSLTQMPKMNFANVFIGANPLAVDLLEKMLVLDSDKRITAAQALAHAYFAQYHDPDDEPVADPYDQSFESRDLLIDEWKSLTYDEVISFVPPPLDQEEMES
Cytochrome P450 2D6, sequence (P10635 whole entry): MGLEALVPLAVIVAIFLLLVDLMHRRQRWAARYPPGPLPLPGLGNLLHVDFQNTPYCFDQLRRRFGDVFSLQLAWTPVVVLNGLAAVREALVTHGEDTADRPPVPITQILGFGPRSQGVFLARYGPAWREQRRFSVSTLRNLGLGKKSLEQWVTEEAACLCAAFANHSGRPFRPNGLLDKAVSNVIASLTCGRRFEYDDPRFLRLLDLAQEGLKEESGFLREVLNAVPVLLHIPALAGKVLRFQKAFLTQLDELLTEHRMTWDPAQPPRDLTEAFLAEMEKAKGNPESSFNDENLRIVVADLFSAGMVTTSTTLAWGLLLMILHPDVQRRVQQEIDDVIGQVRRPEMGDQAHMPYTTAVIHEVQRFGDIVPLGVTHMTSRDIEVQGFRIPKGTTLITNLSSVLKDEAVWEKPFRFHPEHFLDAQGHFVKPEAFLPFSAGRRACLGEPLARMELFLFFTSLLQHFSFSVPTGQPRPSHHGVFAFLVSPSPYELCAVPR
Prostaglandin G/H synthase 1, sequence (P23219 whole entry): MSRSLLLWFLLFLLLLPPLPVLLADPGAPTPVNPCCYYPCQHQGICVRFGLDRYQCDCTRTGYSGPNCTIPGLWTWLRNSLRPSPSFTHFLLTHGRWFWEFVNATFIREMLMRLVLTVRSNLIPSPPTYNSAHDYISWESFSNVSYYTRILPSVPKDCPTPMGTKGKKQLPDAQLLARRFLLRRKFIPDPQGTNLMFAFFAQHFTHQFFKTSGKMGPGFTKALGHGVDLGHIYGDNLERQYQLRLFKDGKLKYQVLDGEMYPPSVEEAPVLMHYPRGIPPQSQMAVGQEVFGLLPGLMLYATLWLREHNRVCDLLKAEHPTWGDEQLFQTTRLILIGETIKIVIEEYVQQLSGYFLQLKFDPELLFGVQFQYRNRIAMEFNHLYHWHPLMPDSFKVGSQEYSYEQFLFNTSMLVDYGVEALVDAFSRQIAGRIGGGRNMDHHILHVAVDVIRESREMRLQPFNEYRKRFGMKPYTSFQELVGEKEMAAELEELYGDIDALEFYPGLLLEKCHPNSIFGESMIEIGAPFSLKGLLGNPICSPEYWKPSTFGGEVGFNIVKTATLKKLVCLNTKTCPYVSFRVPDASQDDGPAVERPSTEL

CC(=O)N[C@@H]1[C@H](Oc2c3cc4cc2Oc2ccc(cc2Cl)[C@@H](O[C@@H]2O[C@@H](CO)[C@@H](O)[C@H](O)[C@@H]2NC(C)=O)[C@@H]2NC(=O)[C@H](NC(=O)[C@@H]4NC(=O)[C@H]4NC(=O)[C@@H](Cc5ccc(c(Cl)c5)O3)NC(=O)[C@H](N)c3ccc(O)c(c3)Oc3cc(O)cc4c3)c3ccc(O)c(c3)-c3c(O[C@H]4O[C@H](CO)[C@@H](O)[C@@H](O)[C@@H]4O)cc(O)cc3[C@@H](C(=O)O)NC2=O)O[C@@H](CO)[C@@H](O)[C@@H]1O
Not Active: IC50 [1] | IC50 (D(4) dopamine receptor) | IC50 [2] | IC50 (Interstitial collagenase) | IC50 [3] | Ki [3] | IC50 [4] | Ki [4] | IC50 [5] | IC50 [6] | Ki [6] | IC50 (Cytochrome P450 2D6) | Ki (Cytochrome P450 2D6) | IC50 [7] | IC50 [8] | Ki [8]

COCCCOc1ccnc(C[S+]([O-])c2nc3ccccc3[nH]2)c1C (centres undefined) [RABEPRAZOLE]
Not Active: IC50 [1] | IC50 (D(4) dopamine receptor) | IC50 [2] | IC50 (Interstitial collagenase) | IC50 [3] | Ki [3] | IC50 [4] | Ki [4] | IC50 [5] | IC50 [6] | Ki [6] | IC50 (Cytochrome P450 2D6) | Ki (Cytochrome P450 2D6) | IC50 [7] | IC50 [8] | Ki [8]

CNC(=C[N+](=O)[O-])NCCSCc1ccc(CN(C)C)o1 [RANITIDINE]
Not Active: IC50 [1] | IC50 (D(4) dopamine receptor) | IC50 [2] | IC50 (Interstitial collagenase) | IC50 [3] | Ki [3] | IC50 [4] | Ki [4] | IC50 [5] | IC50 [6] | Ki [6] | IC50 (Cytochrome P450 2D6) | Ki (Cytochrome P450 2D6) | IC50 [7] | IC50 [8] | Ki [8]

CO[C@H]1/C=C/O[C@@]2(C)Oc3c(C)c(O)c4c(c3C2=O)C2=NC3(CCN(CC(C)C)CC3)NC2=C(NC(=O)/C(C)=C\C=C\[C@H](C)[C@H](O)[C@@H](C)[C@@H](O)[C@@H](C)[C@H](OC(C)=O)[C@@H]1C)C4=O [RIFABUTIN]
Not Active: IC50 [1] | IC50 (D(4) dopamine receptor) | IC50 [2] | IC50 (Interstitial collagenase) | IC50 [3] | Ki [3] | IC50 [4] | Ki [4] | IC50 [5] | IC50 [6] | Ki [6] | IC50 (Cytochrome P450 2D6) | Ki (Cytochrome P450 2D6) | IC50 [7] | IC50 [8] | Ki [8]

CC(C)CC(N(C)C)C1(c2ccc(Cl)cc2)CCC1 (centres undefined) [SIBUTRAMINE]
Not Active: IC50 [1] | IC50 (D(4) dopamine receptor) | IC50 [2] | IC50 (Interstitial collagenase) | IC50 [3] | Ki [3] | IC50 [4] | Ki [4] | IC50 [5] | IC50 [6] | Ki [6] | IC50 (Cytochrome P450 2D6) | Ki (Cytochrome P450 2D6) | IC50 [7] | IC50 [8] | Ki [8]

[H]/N=C(/N)N[C@H]1[C@H](O)[C@@H](O)[C@H](O[C@@H]2O[C@@H](C)[C@](O)(C=O)[C@H]2O[C@@H]2O[C@@H](CO)[C@H](O)[C@@H](O)[C@@H]2NC)[C@@H](N/C(N)=N\[H])[C@@H]1O [STREPTOMYCIN]
Not Active: IC50 [1] | IC50 (D(4) dopamine receptor) | IC50 [2] | IC50 (Interstitial collagenase) | IC50 [3] | Ki [3] | IC50 [4] | Ki [4] | IC50 [5] | IC50 [6] | Ki [6] | IC50 (Cytochrome P450 2D6) | Ki (Cytochrome P450 2D6) | IC50 [7] | IC50 [8] | Ki [8]

COc1cc(NS(=O)(=O)c2ccc(N)cc2)nc(OC)n1 [SULFADIMETHOXINE]
Not Active: IC50 [1] | IC50 (D(4) dopamine receptor) | IC50 [2] | IC50 (Interstitial collagenase) | IC50 [3] | Ki [3] | IC50 [4] | Ki [4] | IC50 [5] | IC50 [6] | Ki [6] | IC50 (Cytochrome P450 2D6) | Ki (Cytochrome P450 2D6) | IC50 [7] | IC50 [8] | Ki [8]

Cc1cc(C)nc(NS(=O)(=O)c2ccc(N)cc2)n1 [SULFAMETHAZINE]
Not Active: IC50 [1] | IC50 (D(4) dopamine receptor) | IC50 [2] | IC50 (Interstitial collagenase) | IC50 [3] | Ki [3] | IC50 [4] | Ki [4] | IC50 [5] | IC50 [6] | Ki [6] | IC50 (Cytochrome P450 2D6) | Ki (Cytochrome P450 2D6) | IC50 [7] | IC50 [8] | Ki [8]

C[C@]1(Cn2ccnn2)[C@H](C(=O)O)N2C(=O)C[C@H]2S1(=O)=O [TAZOBACTAM]
Not Active: IC50 [1] | IC50 (D(4) dopamine receptor) | IC50 [2] | IC50 (Interstitial collagenase) | IC50 [3] | Ki [3] | IC50 [4] | Ki [4] | IC50 [5] | IC50 [6] | Ki [6] | IC50 (Cytochrome P450 2D6) | Ki (Cytochrome P450 2D6) | IC50 [7] | IC50 [8] | Ki [8]
